Assay [1] addresses T1, IN^PFV-viral DNA interaction (Human spumaretrovirus, UniProt P14350).
T1 construct: The full-length wt IN^PFV, the three single mutants of the catalytic triad; His; made in house; host or cells: E. coli BL21-CodonPlus (DE3)-RIPL
Description: IN-viral DNA interaction by steady-state fluorescence anisotropy of Fl-DNA with increasing drug concentrations. Type of assay: binding, prototype foamy virus (PFV). The note with it: 400 nM IN^PFV, 4 nM Fl-PFV^CAAT, 10 mM Mg2+, up to 20 µM drug; means INSTI did not prevent IN-DNA interactions. The procedure:
Their incapability to prevent or disrupt IN-viral DNA complexes was consistently observed over the whole concentration range, regardless of the INSTI tested (Supplementary Fig. S7).
(§1) IN^PFV binding to DNA was measured by fluorescence anisotropy on a Beacon Instrument (Panvera, Madison, WI, USA) as previously described[25],[51], using a double-stranded 21-mer Fl-labeled DNA mimicking the PFV U5 LTR end also referred to as DNA#1 in Table 1 (labeled at the 5′-end of the reactive strand). IN binding to Fl-PFV^CAAT (or Fl-DNA#1) was compared to the binding to other DNA sequences (Fl-DNA#8 #9 #13). DNA annealing was obtained by mixing equimolar amounts of complementary strands in buffer A, heating to 85 °C for 5 min and slow cooling to 25 °C. DNA-binding experiments were performed at 25 °C in buffer A.
(§2) Figure S7. Differential effect of INSTI and INBI compounds on the INPFV-viral DNA interaction.
(§3) The formation of IN-DNA complexes was measured by steady-state fluorescence anisotropy using 400 nM INPFV and 4 nM Fl-PFVCAAT (also named Fl-DNA#1) in the presence of 10 mM Mg2+ and […]
(§4) In each plot, the starting r value (≈ 0.20) corresponds to the typical value found at saturating concentrations of IN (see Fig. S6).
(§5) The INBI compound FZ41, a member of the styrylquinoline family of inhibitors, was used as a control […]
(§6) show mean ± SD values from two independent experiments. […]
(In general: In fluorescence polarisation assays a small probe gives low polarisation when free and higher when bound to something large.)

The next assay concerns IN. As to conditions: INSTIs; cited from earlier work.
The target of a further assay is T2, wt IN^PFV (IN; WT) (Human spumaretrovirus, UniProt P14350).
T2 construct: gene pol; full-length, His-tagged, expressed in E. coli BL21-CodonPlus (DE3)-RIPL
Description: Inhibition of IN-viral DNA binding by steady-state fluorescence anisotropy of 4 nM Fl-PFV^CAAT with 400 nM IN, 10 mM Mg2+, 25 °C. Type of assay: biochemical. As to conditions: n = 2; read-out: IC50 (IN-DNA interaction). The procedure:
as §2, §3, §4, §5, §6, §1

As to `Cc1nnc(C(=O)NC(C)(C)c2nc(C(=O)NCc3ccc(F)cc3)c(O)c(=O)n2C)o1` [RAL, Raltegravir], the “r value of Fl-DNA (IN-DNA complex) on increasing INSTI concentration” value in assay [1] is “remained constant”. The IC50 values result in the assay on IN was “low-nanomolar range”.

Take `COc1cc2c(cc1Cc1cccc(Cl)c1F)c(=O)c(C(=O)O)cn2[C@H](CO)C(C)C` [EVG, elvitegravir]: in assay [1], the “r value of Fl-DNA (IN-DNA complex) on increasing INSTI concentration” value is on record as “remained constant”. Also, in the assay on IN, the IC50 values result was “low-nanomolar range”.

The IC50 is the concentration that inhibits the measured activity by half. Turning to `COc1cc(/C=C/c2ccc3ccc(C(=O)O)c(O)c3n2)cc(O)c1O` [FZ41, FZ41 (styrylquinoline family INBI compound)], the IC50 on wt IN^PFV (IN; WT) was around 800 nM.

Values taken from paper PMC5656594 (Scientific Reports, 2017).
